We go through nine compounds from PubChem BioAssay (NCI).

Test systems include CAKI-1 renal; CCRF-CEM leukemia; EKVX NSCLC; K-562 leukemia; NCI-H460 lung; OVCAR-8 ovarian; RPMI-8226 leukemia; RXF 393 renal; SF-268 CNS; SK-MEL-28 melanoma.
What all share (assay): inhibition of tumour cell growth, NCI panel, 48 h

Structures are written as SMILES.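 Assay format: 96-well plates, 48-hour exposure. GI50 = concentration required for 50% inhibition of growth. Definition used: TGI = concentration required for complete inhibition of growth.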

Consider `CCc1ccc(/C=C/c2ccc(O)c3ncccc23)[n+](C)c1`, for which the GI50 is 39.2 µM in the experiment on CAKI-1 renal; 4.95 µM in the experiment on CCRF-CEM leukemia; 0.777 µM in the experiment on EKVX NSCLC; 0.517 µM in the experiment with K-562 leukemia; 0.507 µM in the experiment on NCI-H460 lung; 0.668 µM in the experiment with OVCAR-8 ovarian. Besides, the GI50 in the experiment on RPMI-8226 leukemia is 3.08 µM; with RXF 393 renal, above 100 µM; in the experiment with SF-268 CNS it was 0.749 µM; in the experiment on SK-MEL-28 melanoma, 76.2 µM. In addition, the TGI in the experiment with CAKI-1 renal, in the experiment on CCRF-CEM leukemia, in the experiment with EKVX NSCLC, in the experiment with K-562 leukemia, with NCI-H460 lung and in the experiment with OVCAR-8 ovarian was above 100 µM in each case. For the same compound, the TGI with RPMI-8226 leukemia, in the experiment on RXF 393 renal, in the experiment with SF-268 CNS and in the experiment with SK-MEL-28 melanoma was above 100 µM each time.
For `CN1CC[C@@H](c2c(O)cc(O)c3c(=O)cc(-c4ccc(C(F)(F)F)cc4Cl)oc23)[C@@H]1CO`, the GI50 was 14.7 µM in the experiment with CAKI-1 renal; 23.4 µM in the experiment on CCRF-CEM leukemia; 13.9 µM in the experiment with EKVX NSCLC; 29.8 µM with K-562 leukemia; 15.8 µM with NCI-H460 lung; 18.2 µM in the experiment with OVCAR-8 ovarian. Moreover, the GI50 is 17.3 µM in the experiment on RPMI-8226 leukemia, 10.9 µM with RXF 393 renal, 15.2 µM in the experiment with SF-268 CNS and 14.4 µM with SK-MEL-28 melanoma. The TGI turned out to be 39.8 µM in the experiment with CAKI-1 renal; 70.2 µM in the experiment with CCRF-CEM leukemia; 37.5 µM in the experiment with EKVX NSCLC; 85.6 µM in the experiment with K-562 leukemia; 31.4 µM in the experiment on NCI-H460 lung; 42 µM in the experiment with OVCAR-8 ovarian. Further, the TGI turned out to be 53.5 µM with RPMI-8226 leukemia, 24.8 µM in the experiment on RXF 393 renal, 39.6 µM in the experiment with SF-268 CNS and 32.2 µM with SK-MEL-28 melanoma.
Turning to `CC1(C)N=C(N)N=C(N)N1c1ccc(CCCCc2ccc(Cl)c(S(=O)(=O)F)c2)c(Cl)c1`, the GI50 was 1.82 µM in the experiment on CAKI-1 renal; 0.168 µM in the experiment on CCRF-CEM leukemia; 2.81 µM with EKVX NSCLC; 0.127 µM with K-562 leukemia; 0.315 µM with NCI-H460 lung; 0.557 µM with OVCAR-8 ovarian. Further, the GI50 in the experiment with RPMI-8226 leukemia is 0.527 µM; in the experiment with RXF 393 renal, 5.93 µM; with SF-268 CNS, 0.509 µM; with SK-MEL-28 melanoma, 1.96 µM. Moreover, the TGI in the experiment on CAKI-1 renal was 10.5 µM; with CCRF-CEM leukemia it was 8.65 µM; in the experiment on EKVX NSCLC it was 37.7 µM; with K-562 leukemia it was 15.8 µM; in the experiment with NCI-H460 lung it was 16.5 µM; in the experiment on OVCAR-8 ovarian, 24.5 µM. For the same compound, the TGI with RPMI-8226 leukemia is 3.32 µM; with RXF 393 renal, 27.8 µM; with SF-268 CNS, 15.9 µM; in the experiment on SK-MEL-28 melanoma it was 16.5 µM.
Turning to `COc1cc(/C=C/C(=O)c2cccc(-n3cc(-c4ccc(Cl)cc4)[nH]c3=O)c2)ccc1O`, the GI50 in the experiment with CAKI-1 renal is 5.02 µM; in the experiment with CCRF-CEM leukemia it was 0.706 µM; in the experiment on EKVX NSCLC, 6.6 µM; in the experiment on K-562 leukemia it was 2.36 µM; in the experiment with NCI-H460 lung, 6.43 µM; in the experiment on OVCAR-8 ovarian, 2.39 µM. The GI50 was 1.33 µM in the experiment with RPMI-8226 leukemia, 2.99 µM in the experiment on RXF 393 renal, 2.93 µM in the experiment with SF-268 CNS and 2.07 µM in the experiment with SK-MEL-28 melanoma. In addition, the TGI was 44.9 µM in the experiment with CAKI-1 renal; 4.42 µM in the experiment with CCRF-CEM leukemia; above 95.2 µM in the experiment on EKVX NSCLC; above 26.4 µM in the experiment with K-562 leukemia; 21.7 µM with NCI-H460 lung; above 27.3 µM with OVCAR-8 ovarian. Besides, the TGI in the experiment on RPMI-8226 leukemia was 3.76 µM; in the experiment on RXF 393 renal, 9.13 µM; in the experiment on SF-268 CNS, 12.6 µM; in the experiment on SK-MEL-28 melanoma, 4.18 µM.
Turning to `COC12C(COC(N)=O)C3=C(C(=O)C(C)=C(N)C3=O)N1CC1C2N1C` (stereo not given), the TGI stood at 22 µM with CAKI-1 renal; 51.7 µM in the experiment with CCRF-CEM leukemia; 60.3 µM in the experiment with EKVX NSCLC; 179 µM in the experiment on K-562 leukemia; 1.86 µM in the experiment on NCI-H460 lung; 53.1 µM with OVCAR-8 ovarian. Besides, the TGI was above 85.5 µM with RPMI-8226 leukemia, 28.7 µM in the experiment on RXF 393 renal, 47 µM in the experiment with SF-268 CNS and 57.4 µM in the experiment with SK-MEL-28 melanoma.
On to `O=C(NNc1ccccc1)C(=O)NNc1ccccc1`, for which the GI50 with CAKI-1 renal was 0.795 µM; in the experiment with CCRF-CEM leukemia, 0.637 µM; in the experiment with EKVX NSCLC, above 100 µM; in the experiment with K-562 leukemia, 0.396 µM; in the experiment with NCI-H460 lung, 3.47 µM; in the experiment on OVCAR-8 ovarian it was above 100 µM. Besides, the GI50 in the experiment on RPMI-8226 leukemia was above 100 µM; with RXF 393 renal, above 100 µM; with SF-268 CNS, 1.63 µM; in the experiment on SK-MEL-28 melanoma, 58.1 µM. In addition, the TGI in the experiment with CAKI-1 renal, in the experiment with CCRF-CEM leukemia, in the experiment on EKVX NSCLC, with K-562 leukemia, in the experiment on NCI-H460 lung and in the experiment with OVCAR-8 ovarian was above 100 µM each time. Further, the TGI with RPMI-8226 leukemia, in the experiment on RXF 393 renal, in the experiment with SF-268 CNS and with SK-MEL-28 melanoma was above 100 µM in each case.
Regarding `C=COC(=O)N[C@H]1CCc2cc(OC)c(OC)c(OC)c2-c2ccc(SC)c(=O)cc21`, the TGI was 45.9 µM in the experiment on CAKI-1 renal; above 80.1 µM in the experiment on CCRF-CEM leukemia; above 100 µM with EKVX NSCLC; above 31.6 µM in the experiment on K-562 leukemia; 0.991 µM in the experiment with NCI-H460 lung; above 80.7 µM with OVCAR-8 ovarian. Besides, the TGI in the experiment with RPMI-8226 leukemia was 52.1 µM; in the experiment on RXF 393 renal, 3.14 µM; with SF-268 CNS it was 44.9 µM; in the experiment on SK-MEL-28 melanoma it was above 96.3 µM.
Take `COc1cc2c3c(c1OC)-c1cc4c(cc1CC3(C#N)N(C(=O)c1ccccc1)CC2)OCO4` (stereo not given): the TGI with CAKI-1 renal is above 81 µM; in the experiment with CCRF-CEM leukemia, above 100 µM; in the experiment with EKVX NSCLC, above 100 µM; in the experiment on K-562 leukemia, above 100 µM; in the experiment on NCI-H460 lung, above 100 µM; in the experiment with OVCAR-8 ovarian, above 74.2 µM. For the same compound, the TGI with RPMI-8226 leukemia is above 100 µM; in the experiment on RXF 393 renal it was 26.9 µM; with SF-268 CNS, above 91 µM; in the experiment with SK-MEL-28 melanoma, above 100 µM.
Turning to `COc1ccc(-c2nnc(N3CCN(C(=O)CN4CCN(c5ccccc5)CC4)CC3)nc2-c2ccc(OC)cc2)cc1`, the GI50 in the experiment on CAKI-1 renal is 6.23 µM; with CCRF-CEM leukemia, 5.19 µM; with EKVX NSCLC, 4.91 µM; with K-562 leukemia it was 2.53 µM; in the experiment on NCI-H460 lung it was 4.2 µM; in the experiment on OVCAR-8 ovarian, 7.15 µM. The GI50 in the experiment on RPMI-8226 leukemia was 2.06 µM; in the experiment on RXF 393 renal, 3.36 µM; with SF-268 CNS, 83.4 µM; with SK-MEL-28 melanoma, 14.3 µM. Also, the TGI in the experiment with CAKI-1 renal, in the experiment on CCRF-CEM leukemia, in the experiment on EKVX NSCLC, in the experiment with K-562 leukemia, in the experiment on NCI-H460 lung and in the experiment on OVCAR-8 ovarian was above 100 µM throughout. Also, the TGI with RPMI-8226 leukemia is 5.16 µM; in the experiment with RXF 393 renal, 22.4 µM; in the experiment on SF-268 CNS, above 100 µM; in the experiment with SK-MEL-28 melanoma it was above 100 µM.
